The values below come from US8202889B2, “Inhibitors of bacterial IMPDH” (Vertex Pharmaceuticals Incorporated, priority 2005, dated 2012).

Experiment [1] deals with E. coli IMPDH enzyme (Escherichia coli, UniProt P0ADG7). As to the kind of experiment: IMPDH Activity Inhibition Assay. The format is biochemical. The following applies: for activity at 10 µM: percent remaining activity of E. coli IMPDH enzyme at 10 μM inhibitor (I) and 55 nM enzyme (E); for activity at 25 µM: percent remaining activity of E. coli IMPDH enzyme at 25 μM inhibitor (I) and 14 nM enzyme (E). As to the method: IMP dehydrogenase activity was assayed according to the method reported by Hedstrom. [Hedstrom, L. et al., Biochemistry, 39, pp. 9804-9810 (2000), the disclosure of which is herein incorporated by reference]. Table 1 below lists the percent remaining activity of E. coli IMPDH enzyme (E) at either 25 μM inhibitor (I) and 14 nM enzyme (E) or 10 μM inhibitor (I) and 55 nM enzyme (E). “ND” means no data.

Experiment [2] concerns bacterial IMPDH. To be noted: Hedstrom et al., Curr. Med. Chem. 1999; cited from earlier work.

Chain of E. coli IMPDH enzyme (P0ADG7 whole entry): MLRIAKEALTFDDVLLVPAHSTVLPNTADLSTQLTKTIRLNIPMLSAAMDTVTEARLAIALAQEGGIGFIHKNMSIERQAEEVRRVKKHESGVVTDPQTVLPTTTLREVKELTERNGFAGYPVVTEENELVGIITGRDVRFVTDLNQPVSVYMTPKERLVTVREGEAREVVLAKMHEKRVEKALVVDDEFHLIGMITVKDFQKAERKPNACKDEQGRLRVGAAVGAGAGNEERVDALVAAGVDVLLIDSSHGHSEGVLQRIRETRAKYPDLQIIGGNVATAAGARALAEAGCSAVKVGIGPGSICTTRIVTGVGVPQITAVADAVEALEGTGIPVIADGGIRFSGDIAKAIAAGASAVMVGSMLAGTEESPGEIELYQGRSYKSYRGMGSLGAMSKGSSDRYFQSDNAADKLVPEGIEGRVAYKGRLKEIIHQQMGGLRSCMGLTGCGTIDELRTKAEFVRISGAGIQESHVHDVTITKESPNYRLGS

As for `O=C(Nc1nccs1)c1ccc2cc(C(=O)Nc3nccs3)ccc2c1` [Compound 11], in experiment [1], the activity at 10 µM was 97%.

In experiment [1], `COc1cc2ccccc2cc1C(=O)Nc1nc(-c2c(OC)ccc3ccccc23)cs1` [Compound 9] came in with an activity at 10 µM of 100%.

Take `CCOc1cccc2sc(NC(=O)c3cc4ccccc4cc3OC)nc12` [Compound 7]: in experiment [1], the activity at 25 µM came out at 76%.

Turning to `O=C(Nc1nncs1)c1ccc2cc(C(=O)Nc3nncs3)ccc2c1` [Compound 12], the activity at 10 µM in experiment [1] amounted to 100%.

`Cc1cccc(NC(=O)c2ccc3cc(C(=O)Nc4cccc(C)n4)ccc3c2)n1` [Compound 8] registered an activity at 10 µM in experiment [1] of 87%.

As to `COc1c(C)c2c(c(O)c1C/C=C(\C)CCC(=O)O)C(=O)OC2` [mycophenolic acid], in experiment [2], the “fold less potent against bacterial IMPDH versus mammalian IMPDH” value is reported as > 1000 fold.

Turning to `COc1ccc(-c2csc(NC(=O)c3cc4ccccc4cc3OC)n2)cc1OC` [Compound 10], in experiment [1], the activity at 10 µM turned out to be 73%.

Regarding `O=C(Nc1nc2ccccc2[nH]1)c1ccc2cc(C(=O)Nc3nc4ccccc4[nH]3)ccc2c1` [Compound 6], the activity at 25 µM in experiment [1] came to 90%.
